Laboratory results as given in US10570176B2, “Anti-hepatitis B virus X protein polypeptide pharmaceutical” (priority 2015, dated 2020).
Non-standard residues stand in square brackets, D forms with d. No end group written: not given here.

How the values were obtained:
[1] = tested on: liver cancer HepAD38 cells integrated with HVB DNA; experiment: HBeAg secretion ELISA in HepAD38 cells; format: cell-based; conditions: for Inhibition of HBeAg secretion levels: 10 μM
Method: (§1) 3. Analysis of function of D-TTK001 on HBeAg secreation in liver cancer cells utilizing enzyme-linked immunosorbent assay (ELISA)
(§2) (i) Biosafety cabinet was ultraviolet sterilized for 30 min and purged for 30 min; DMEM/F12 (1:1) culture medium containing 15% fetal bovine serum, HepAD38 cells (or HepG2.2.15 cells) were taken out, sterilized with 75% alcohol, and placed in the biosafety cabinet.
(§3) (ii) Under aseptic conditions, discard old culture medium, add 3 mL 1×PBS each time, wash twice, add 1 mL 0.25% trypsin, the cells were digested until cell rounding as observed in microscope. Add 5 mL culture medium, dispense cells, count with hemocytometer, and dilute with culture medium to a cell number of 1˜2×10^4 cells/mL.
(§4) (iii) Plating 96-well plate. Under aseptic conditions, discard old culture medium, add 3 mL 1×PBS each time, wash twice, add 1 mL 0.05% trypsin, the cells were digested until cell rounding as observed in microscope. Add 10 mL culture medium, dispense cells, count with hemocytometer, and dilute with DMEM/F12(1:1) culture medium, add 100 μL cell suspension into each well to a cell number of 1˜2×10^3 cells/mL. The outer-most wells are not added with cells. Culturing until cell attachment (usually 12 hrs.) and extension. Subsequent tests can be conducted when cells are in good condition.
(2) Applying D-TTK001 (or L-TTK001, i.e., anti-HBxP1#) to liver cancer HepAD38 cells (or HepG2.2.15 cells)
10 mM D-TTK001 (or L-TTK001) mother solution was serially diluted from high concentration to low concentration, added into liver cancer HepAD38 cells (or HepG2.2.15 cells) culture solution to obtain final concentrations of D-TTK001 (or L-TTK001) of 0.1 μM, 1 μM, 10 and 100 μM in respective groups. […]
(3) Applying ELISA to measure HBeAg content in HepAD38 cell (or HepG2.2.15 cell) culture medium
(i) Balancing: place HBeAg assay kit in room temperature for 30 min.
(ii) Preparing solution: dilute concentrated wash liquid for 25 times with purified water.
(iii) Taking out the plate: take out the reaction plate according to experimental requirements (3 wells for negative control, 1 well for positive control, and 1 well for blank control).
(iv) Adding sample: add 75 μL of test samples or negative/positive control into respective wells, gently shake and mix.
(v) Incubating: after sealed with microplate sealer, incubate at 37° C. for 60 min.
(vi) Adding enzyme: add 50 μL of enzyme conjugates into each well except for blank wells, gently shake and mix.
(vii) Incubating: after sealed with microplate sealer, incubate at 37° C. for 30 min.
(viii) Washing plate: remove microplate sealer carefully, manually wash plate for 5 times, pat dry.
(ix) Developing color: add 50 μL each of color-developing agent A and B liquid, gently shake and mix, develop color in dark placed at 37° C. for 30 min.
(§5) (x) Stopping: add 50 μL of stop solution into each well, gently shake and mix, measure the result in ten minutes. Set wavelength of microplate reader to 450 nm, measure OD value for each well after zero setting with blank wells.
The invention also investigates the role of the functional variants of the polypeptide and functional fragments thereof. The sequences as shown in the following table are artificially synthesized D-amino acid substituted sequences on the basis of L-TTK001 (i.e., anti-HBxP1#). The polypeptide fragments were artificially synthesized according to the sequences (method as above), and then, above-mentioned ELISA method was adopted to observe the change in the functions of the polypeptides.

HBx protein = molecular target: T1, HBx protein (Hepatitis B virus genotype D subtype ayw, UniProt P03165); experiment: In vitro binding to recombinantly expressed HBx protein, Biacore 3000; conditions: in vitro binding to HBx, in vitro binding analysis results
T1 construct: made in house
T1 sequence (P03165 whole entry): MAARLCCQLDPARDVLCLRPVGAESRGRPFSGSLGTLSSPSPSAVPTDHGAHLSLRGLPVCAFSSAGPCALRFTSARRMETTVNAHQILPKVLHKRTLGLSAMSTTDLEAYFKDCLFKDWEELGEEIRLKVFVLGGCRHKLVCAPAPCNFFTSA
Method: The recombinant plasmid (pET-30a-HBx) expressing HBx gene was self-constructed and preserved (Zhang H, et al. J Biomed Biotechnol, doi:10.1155/2009/289068), and then expression and purification of HBx were conducted according to above reference for the measurement of in vitro binding ability. Biacore 3000 biomolecular interaction analyzing unit (manufactured by GE Healthcare) was utilized to measure in vitro binding ability of polypeptide D-TTK001 to recombinantly expressed HBx protein. Polypeptide at different concentrations were injected for 180 seconds at a rate of 30 μL/min. In dissociation stage, HBS-EP buffer was injected for 900 seconds at a rate of 30 μL/min, then at a rate of 30 μL/min, 2 shots of 1 mM NaOH were injected for 20 seconds to regenerate the chip. All signals were calibrated using channel 1 as the reference channel. Binding measurement was conducted twice, respectively, wherein in the first measurement, HBX was injected into the channel of the coupled polypeptide and the blank channel at concentrations of 0 nM, 10 nM, 50 nM, 100 nM, 500 nM and 600 nM, respectively. Binding time was 180 seconds and dissociation time was 400 seconds. On chip surface, 1 mM NaOH was injected for 20 seconds at a rate of 30 μL/min for regeneration. In the second measurement, HBX was injected into the channel of coupled polypeptide and the blank channel at concentrations of 0 nM, 10 nM, 50 nM, 588 nM, 1 μM, and 2 μM, respectively. Binding time was 180 seconds and dissociation time was 400 seconds. On chip surface, 1 mM NaOH was injected for 20 seconds at a rate of 30 μL/min for regeneration. Results were kinetically analyzed by BIA Evaluation Software.

HepG2.2.15 cells = experiment: HBeAg secretion ELISA in HepG2.2.15 cells; format: cell-based; conditions: 0.1, 1, 10, 100 μM
Method: as §1, §2, §3
as §4, with “The outer-most wells are not added with cells. Culturing until cell attachment (usually 12 hrs.) and extension. Subsequent tests can be conducted when cells are in good condition.” left out
as §5

HepAD38 cells = experiment: MTT assay, proliferation of HepAD38 cells; format: cell-based; conditions: 0.1, 1, 10, 100 μM, 48 hrs
Method: (1) Plating cells: suspend HepAD38 cells at exponential phase in RPMI1640 medium with 10% FBS, and plate 4000-5000 cells in a 96-well plate with 100 μL per well.
(2) Culturing cells: within 12 hrs. for adhesion of cultured cells, add different concentrations of synthesized D-TTK001 (or L-TTK001) polypeptides from Example 1 (0.1 μM, 1 μM, 10 μM and 100 μM) into 8 wells for each concentration, and incubate for 48 hrs. in common condition.
(3) Coloration: add 20 μL of MTT solution (5 mg/mL MTT in PBS buffer (pH7.4)) for each well.
(4) Incubate for 4 hrs., and carefully aspirate off the supernatant from the wells. Add 150 μL of DMSO into each well, shake for 10 min until the crystals were dissolved.
(5) Comparison: Read in an ELISA reader at 490 nm to measure the absorbance for each well. Results were calculated using Student's t-test.

Substance	Inhibition of HBeAg secretion levels [1]	further results
G-D/S-A-V-M-F-S-S-K-E-R-G (G[dS]AVMFSSKERG) [D-TTK001-1]	inhibits HBeAg secretion levels of HepAD38 cells to various extents	
G-S-A-D/V-M-F-S-S-K-E-R-G (GSA[dV]MFSSKERG) [D-TTK001-3]	inhibits HBeAg secretion levels of HepAD38 cells to various extents	
G-S-A-V-D/M-F-S-S-K-E-R-G (GSAV[dM]FSSKERG) [D-TTK001-4]	inhibits HBeAg secretion levels of HepAD38 cells to various extents	
G-S-A-V-M-D/F-S-S-K-E-R-G (GSAVM[dF]SSKERG) [D-TTK001-5]	inhibits HBeAg secretion levels of HepAD38 cells to various extents	
G-S-A-V-M-F-D/S-S-K-E-R-G (GSAVMF[dS]SKERG) [D-TTK001-6]	inhibits HBeAg secretion levels of HepAD38 cells to various extents	
G-S-A-V-M-F-S-D/S-K-E-R-G (GSAVMFS[dS]KERG) [D-TTK001-7]	inhibits HBeAg secretion levels of HepAD38 cells to various extents	
G-S-A-V-M-F-S-S-D/K-E-R-G (GSAVMFSS[dK]ERG) [D-TTK001-8]	inhibits HBeAg secretion levels of HepAD38 cells to various extents	
G-S-A-V-M-F-S-S-K-D/E-R-G (GSAVMFSSK[dE]RG) [D-TTK001-9]	inhibits HBeAg secretion levels of HepAD38 cells to various extents	
G-S-A-V-M-F-S-S-K-E-D/R-G (GSAVMFSSKE[dR]G) [D-TTK001-10]	inhibits HBeAg secretion levels of HepAD38 cells to various extents	
G-S-D/A-V-M-F-S-S-K-E-R-G (GS[dA]VMFSSKERG) [D-TTK001-2]	inhibits HBeAg secretion levels of HepAD38 cells to various extents	
GSAVMFSSKERG [L-TTK001, Gly-Ser-Ala-Val-Met-Phe-Ser-Ser-Lys-Glu-Arg-Gly, reference compound]		Kd (HBx protein): 8 nM; Minimum effective dose on HBeAg secretion levels (HepG2.2.15 cells): 10 µM; Minimum effective dose on growth and proliferation (MTT) (HepAD38 cells): 10 µM; Minimum effective dose on HBeAg secretion levels ([1]; 0.1, 1, 10, 100 μM): 10 µM
